Assay results from US20130225669A1 (priority 2012, published 2013).

System: Bacillus atrophaeus spores
Assay: Qualitative antibacterial effects on spore strips in Releasat medium
Type: cell-based
Conditions: one week treatment
Protocol: The antibacterial effects of genipin solutions on Bacillus atrophaeus spores was assessed. Using aseptic technique, B. atrophaeus mini spore strips (N=4 per group) with 1.2×10^6 spores per strip (North American Science Associates, Inc., Northwood, Ohio, USA) were either untreated, or treated with either 1 mL PBS, 0.625% genipin in PBS (1.4×10^13 genipin molecules per spore), 90% ethanol, 10% genipin in 90% ethanol (2.2×10^14 genipin molecules per spore), or 10% formalin for one week. Ten percent genipin was used in 90% ethanol for direct comparison to 10% formalin. Solutions were passed through a 0.2 μm Whatman filter (Fisher Scientific, Pittsburgh, Pa., USA) prior to being used to remove extraneous bacteria.
After treating the spore strips for one week they were transferred to Releasat® rapid-readout color changing vials (SGM Biotech, Bozeman, Mont., USA). Releasat® vials have specially formulated soybean-casein digest medium and a pH indicator designed to change color from orange to yellow in the presence of B. atrophaeus growth within 72 hours or remain orange if the spore strips are sterile. The spore strips treated with 10% genipin in 90% ethanol were removed from their respective medium vials and washed in 10 mL of sterile 90% ethanol for 15 minutes after it was noticed that within 90 minutes of placement into the Releasat® medium that the color changed from orange to brown (genipin-induced color change). These spore strips were placed in new Releasat® vials after washing. Spores were incubated at 37° C. and vials were checked after 24, 48, and 72 hours for color change and assessments of turbidity.

## C=O [formalin, reference compound]
10% formalin, read after 72 hours
  color of Releasat medium (orange sterile, yellow growth): remained orange

## COC(=O)C1=CO[C@@H](O)C2C(CO)=CC[C@H]12 (stereo in doubt) [genipin, methyl (1R,2R,6S)-2-hydroxy-9-(hydroxymethyl)-3-oxabicyclo [4.3.0]nona-4,8-diene-5-carboxylate]
0.625% genipin in PBS
  turbidity of medium: less turbid than the PBS and untreated control at all time points
0.625% genipin in PBS, within 24 hours
  color of Releasat medium (orange sterile, yellow growth): changed to yellow
10% genipin in 90% ethanol
  turbidity of medium: less turbid than the 90% ethanol and untreated control after 24 and 48 hours only
10% genipin in 90% ethanol, within 24 hours
  color of Releasat medium (orange sterile, yellow growth): changed to yellow
